Patent publication US11213515B1, “Compounds that interact with the Ras superfamily for the treatment of cancers, inflammatory diseases, rasopathies, and fibrotic disease” (Shy Therapeutics LLC, priority 2017, dated 2022)

Target: KRas G12D/Q61H double mutant (Homo sapiens (Human), UniProt P01116, G12D/Q61H)
Assay: Ras GTP binding domain inhibition assay (labeled GTP)
Conditions: 20 μM compound
Description: Buffer-I: • 50 mM Tris, pH 7.5 • 150 mM NaCl (optional) • 1 mM MgCl2 • 1 mM DTT. • KRas G12D mutant protein was expressed as a His-tagged protein. Purified His-KRas G12D protein was diluted in buffer-I to a final concentration of 3-10 μg/ml. • 200 μl of the diluted His-KRas G12D protein was added to a nickel coated 96 well plate and incubated overnight at 4° C. • The next day, wells were washed 3× in 200 μl of Buffer-I. • Then 200 μl of Buffer-I were added to each well in the presence of 1% DMSO. • Tested compounds were added to the protein-coated wells at a concentration of 20 μM, and incubated for 3 hours at room temperature. […]
Then 22 μl of Cy3-GTP or Cy5-GTP was added to each well. The labeled GTP was incubated for 45 min. at room temperature. • Following GTP incubation, wells were washed 3× in Buffer-I, and 200 μl of Buffer-I were added to each well. • Following washes, the amount of bound labeled-GTP was measured with an Eppendorf AF2200 plate reader.
By substituting KRas G12D mutant protein with KRas G12C mutant, KRas wild type, KRas Q61H mutant, KRas G12D/Q61H double mutant or KRas G12C/Q61H double mutant under the assay conditions described above, KRas G12C mutant KRas wild type, KRas Q61H mutant, KRas G12D/Q61H double mutant and KRas G12C/Q61H double mutant inhibition, respectively, were each determined.

Chain of KRas G12D/Q61H double mutant (P01116-2 other isoform, or with tags, fused parts or gaps G12D/Q61H): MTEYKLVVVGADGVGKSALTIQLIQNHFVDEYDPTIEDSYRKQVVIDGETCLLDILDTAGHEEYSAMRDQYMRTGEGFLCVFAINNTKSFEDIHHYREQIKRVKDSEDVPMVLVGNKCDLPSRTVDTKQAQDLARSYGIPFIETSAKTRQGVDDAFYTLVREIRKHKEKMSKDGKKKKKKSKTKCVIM

inhibition at 20 µM: 1 to 25%
SMILES: COCCn1c(SC(C)c2nc(-c3cccnc3)no2)nc2cc(Cl)ccc2c1=O (stereo not shown)
